Data: patent US8501679B2, “Cyclic, cystein-free protein” (priority 2007, dated 2013)
Entries after “also recorded” stand apart in the source; their conditions may differ. Where a SMILES comes first, the peptide text is derived from it. Bridges are numbered along the chain shown (N, C = ends).

Columns and labels:
[1] = tested on: pulmonary oedema / acute lung injury in Wistar rats; assay: Experimental animal study pulmonary oedema: lungs rinsed with acidified saline, arterial oxygen content; assay type: in vivo, rat; settings: for improvement in the lung function (increased oxygen content in arterial blood): laboratory animals, injected into the lungs as a fog or aqueous solution, within 3 to 5 hours; for oxygen content of the arterial blood, % relative to the value before rinsing the lungs / oxygen content in the blood after administering protein: rat; for oxygen content of the arterial blood, % relative to the value before rinsing the lungs: 125 μg protein intratracheal, 180 minutes after rinsing the lungs, 20% at 60 minutes and without protein; for oxygen content in the blood after administering protein: intratracheal as a fog one hour after lung rinsing, FIG. 3A/3B
Method: For the simulation of an acute lung injury and for the formation of a pulmonary oedema, the lungs of laboratory animals, e.g., mice or rats, can be rinsed several times with an acidified saline solution in a manner common in laboratories (for example, according to Isik F. et al., Eur J Cardiothorac Surg (2005); 28: 301-305). The result is a decrease in lung function.
Male Wistar rats (weighing from 250 g to 350 g) are anesthetized with Rompun® (0.02 ml/100 g) and Ketavet® (0.1 ml/100 g). The respiration is done with a cycle of 72 blows/minute, with an inhalation time of 0.2 seconds and an exhalation time of 0.5 seconds. The body temperature ranges, on average, from 37° C. to 39° C. Under normal conditions, the PaO2 (arterial oxygen partial pressure) ranges from 500 to 550 mm Hg.
For the simulation of an acute lung injury and for the formation of a pulmonary oedema, the lungs are rinsed 7 to 9 times with an acidified saline solution (pH 5).
After one hour, the proteins comprising amino acid sequence SEQ ID NO:1 or SEQ ID NO:2, dissolved in sterile saline solution, are administered intratracheally as a fog (maximum volume administered: 0.5 ml).
At intervals of 60 minutes each, arterial blood (0.1 ml) is withdrawn from the animals, and the oxygen content is determined in % relative to the normal value.
The verification of the stimulating effect of a protein according to the present invention, e.g., of a protein comprising amino acid sequence SEQ ID NO:1, SEQ ID NO:2 or SEQ ID NO:3, on the lung function is made via experimental animal studies in which a pulmonary oedema is induced. The experimental procedure is described in Example 5.
For the intratracheal inhalation, 125 μg protein are, in each case, dissolved in 150 mM saline solution pH 7.3. The oxygen content of the arterial blood is measured immediately before rinsing the lungs, 60 minutes after rinsing the lungs and 180 minutes after rinsing the lungs. The oxygen content immediately before rinsing the lungs is determined to be 100%. 60 minutes after the respective final lung rinsing, the oxygen content in the blood amounts to, on average, only 20%. Within 3 hours, the percentage oxygen content rises to values of […]

[2] = tested on: sodium ion channels of H441 cells; assay: Activation of ion channels of human epithelial cells, patch-clamp (whole cell / cell-attached); assay type: cell-based; settings: FIG. 2A/2B
Excerpt: Furthermore, a method common in laboratories is to detect the activation of ion channels by means of patch-clamp experiments, and this is described, for example, in Clunes M. T. et al, J Physiol Volume 557, No. 3, 809-819 (Jun. 15, 2004). For patch-clamp examinations of ion channels, a glass cannula is stretched thin and filled with a neutral buffer solution. The glass cannula (patch-clamp pipette) is carefully pressed onto an intact epithelial cell. A piece of membrane is located below the pipette. An electrical resistance is thereby produced between the interior of the pipette and the external solution. An electrode attached to a sensitive amplifier dips into the pipette solution.
The electrophysiological experiments were performed on human H441 cells. H441 cells are human lung epithelial cells which are involved in the diffusion of water and electrolytes in the lungs.
The H441 cells were obtained from the American Tissue Culture Collection and cultivated in conventional cell culture vessels in RPMI 1640 medium (Invitrogen). […]
This protocol was carried out by adding proteins comprising amino acid sequence SEQ ID NO:1 or SEQ ID NO:2 as well as the sodium channel inhibitor amiloride. The current dissipations thus obtained were stored and analyzed by means of the program PCLAMP 6.0.

[3] = tested on: human immune cells in fresh blood (IL-6 release); assay: Determination of inflammatory parameters: release of Interleukin-6 from human fresh blood (ELISA); assay type: cell-based; settings: for release of the inflammation marker IL-6: human immune cells from blood incubated with the substance; for Concentration of Interleukin-6 (average of three measurements): human fresh blood, 24 hours at 37° C.
Method: For the examination, human immune cells from the blood are mixed with protein according to the present invention at a small concentration and are incubated in a manner common in laboratories. Subsequently, marker proteins for inflammations are determined in cell-free culture media by conventional methods.
Fresh human blood has a very sensitive reaction to pro-inflammatory molecules, among other things, with a release of the inflammation marker Interleukin-6 (IL-6). For determining the pro-inflammatory reaction, samples of human fresh blood at concentrations of the protein comprising amino acid sequence SEQ ID NO:2 were incubated at the following concentrations from 1 ng/ml to 10 μg/ml. After an incubation of 24 hours at 37° C., the inflammation marker Interleukin-6 was quantitatively determined in the solution via ELISA. LPS served as a positive control (concentrations of 3 ng/ml and 100 ng/ml).
In doing so, the measured data, which are indicated in TABLE 1 and which show the influence of the peptide protein comprising amino acid sequence SEQ ID NO:2 in comparison to LPS on the release of the inflammation marker Interleukin-6 from blood cells, were obtained.

Row | SMILES | improvement in the lung function (increased oxygen content in arterial blood) [1] | oxygen content of the arterial blood, % relative to the value before rinsing the lungs [1] [%] | oxygen content in the blood after administering protein [1] | activation of the sodium ion channels (amplitude of electrical signal) [2] | release of the inflammation marker IL-6 [3] | Concentration of Interleukin-6 (average of three measurements) ([3]; 1 ng/ml) | Concentration of Interleukin-6 (average of three measurements) ([3]; 3 ng/ml) | Concentration of Interleukin-6 (average of three measurements) ([3]; 1 μg/ml) | Concentration of Interleukin-6 (average of three measurements) ([3]; 10 μg/ml)
1 | CC[C@H](C)[C@H](NC(=O)[C@H](C)NC(=O)[C@H](CO)NC(=O)[C@H](CC(C)C)NC(=O)[C@H](CC(C)C)NC(=O)[C@H](CC(N)=O)NC(=O)[C@@H](N)C(C)C)C(=O)N[C@H]1CCCCNC(=O)CC[C@@H](C(=O)N2CCC[C@H]2C(=O)N[C@H](C(=O)N[C@@H](Cc2ccc(O)cc2)C(=O)N[C@@H](CC(C)C)C(=O)NCC(=O)O)[C@@H](C)CC)NC(=O)[C@H](Cc2ccc(O)cc2)NC(=O)[C@H](Cc2c[nH]c3ccccc23)NC(=O)[C@@H]2CCCN2C(=O)[C@H](CCCCN)NC(=O)[C@H](C)NC(=O)[C@H](CCC(=O)O)NC(=O)[C@H](C)NC(=O)CNC(=O)[C@H](CCC(=O)O)NC(=O)[C@@H]2CCCN2C(=O)[C@H]([C@@H](C)O)NC(=O)[C@H](CCC(=O)O)NC(=O)[C@H](CCCNC(=N)N)NC(=O)[C@H](CCC(N)=O)NC(=O)CNC(=O)[C@@H]2CCCN2C(=O)[C@H](CO)NC1=O [SEQ ID NO:1] (H-VNLLSAIKSPGQRETPEGAEAKPWYEPIYLG-OH; lactam 8-26) | distinct improvement in the lung function | 62 | increased | activation of the sodium ion channels | cannot be detected |  |  |  | 
2 | C[C@@H]1NC(=O)CNC(=O)[C@H](CCC(=O)O)NC(=O)[C@@H]2CCCN2C(=O)[C@H]([C@@H](C)O)NC(=O)[C@H](CCC(=O)O)NC(=O)[C@H](CCCNC(=N)N)NC(=O)[C@H](CCC(N)=O)NC(=O)CNC(=O)[C@@H]2CCCN2C(=O)[C@H](CO)NC(=O)[C@@H](N)CCCCNC(=O)CC[C@@H](C(=O)O)NC(=O)[C@H](Cc2ccc(O)cc2)NC(=O)[C@H](Cc2c[nH]c3ccccc23)NC(=O)[C@@H]2CCCN2C(=O)[C@H](CCCCN)NC(=O)[C@H](C)NC(=O)[C@H](CCC(=O)O)NC1=O [SEQ ID NO:2, (NH2)Lys-Ser-Pro-Gly-Gln-Arg-Glu-Thr-Pro-Glu-Gly-Ala-Glu-Ala-Lys-Pro-Trp-Tyr-Glu(COOH)] | distinct improvement in the lung function | 75 | increased | activation of the sodium ion channels | cannot be detected; also recorded: virtually no inflammation marker IL-6 is released | less than 0.5 pg/ml | less than 0.5 pg/ml | less than 0.5 pg/ml | less than 0.5 pg/ml
